Earlier results on two compounds are cited in patent US20100322880A1, “UVA FILTERS BASED ON ASCORBIC ACID DERIVATIVES” (Merck Patent GmbH, priority 2008, published 2010).

In this data set the test system is prolyl-4-hydroxylase. The conditions noted are these: for supporting the activity of the enzyme prolyl-4-hydroxylase: literature statement, no figures.

As for `CC(=O)Oc1ccccc1C(=O)OC[C@H](OC(=O)c1ccccc1OC(C)=O)[C@H]1OC(=O)C(O)=C1O` [O^5O^6-bis(2-acetoxybenzoyl) L-ascorbate], the “supporting the activity of the enzyme prolyl-4-hydroxylase” value is given as “capable of supporting the activity”. In addition, for the setting “disubstituted compared with the monosubstituted compound”, the “affinity to the enzyme” value is “lower affinity”.

Consider `CC(=O)Oc1ccccc1C(=O)OC[C@H](O)[C@H]1OC(=O)C(O)=C1O` [O^6-(2-acetoxybenzoyl) L-ascorbate], for which the “supporting the activity of the enzyme prolyl-4-hydroxylase” value is recorded as “capable of supporting the activity”.
